Measured values from article PMC5630632, “Assessing inhibitors of mutant isocitrate dehydrogenase using a suite of pre-clinical discovery assays” (Scientific Reports, 2017).
In brackets after ≈: the same amount, converted by molar mass. Where two headings read alike, the source gives them in different places.

What was measured:
[1] = tested on: RBE (R132S) 3D cellular spheroids; assay: 2-HG production, spheroids (3D), RBE; format: cell-based; conditions: Homo sapiens; 3D spheroid, mass spec
Text: (§1) To evaluate the effect of mIDH1 inhibitors in more relevant models of solid tumors, we adapted a 3-dimensional (3D) multicellular tumor spheroid assay to monitor spheroid formation and 2-HG production. Small molecules can have diminished efficacy in multicellular tumor spheroid models due to limited penetration and the heterogeneous nature of the 3D tumor spheroid[39],[40]. We began by testing the 6 aforementioned cell lines for their ability to form spheroids in ultra-low attachment plates at varying cell concentrations (1000–5000 cells/well). […] Overall, spheroids produced less extracellular 2-HG than cells cultured in monolayer (Fig. 7B).
(§2) Using these simple 3D models of solid tumors, we assessed the ability of inhibitors to reduce 2-HG production.
(§3) 2-HG production: Cells grown as spheroids (3D)
(§4) (RBE) cells/well/150 μ L to form spheroids. Of note, we were not able to obtain spheroids using SNU1079 cells. Plates were sealed with gas permeable membranes, centrifuged at 40 rcf for 1 min, and incubated at 37°C, 5% CO2, 90% RH for 96 (HT108 0, U87 and JJ01 2) or 4 8 (RBE) h r. Cells were washed (by remo ving 10 0 μL of exhausted media and re placing it with 100 μL of growth media, twice) and treated with 50 μL of a solution of media containing the indicated compounds. Each compound was tested as an 8-point dilution series ranging from 5 μM to 2.3 nM.
(§5) After 96 hr of t reatment, 100 μL of the exhausted media was collected and snap frozen on dry ice. Samples were analyzed by LC -MS for 2- HG concentrations using Rapidfire /Mass Spectrometry (Quintara) ( 4) . Plates were first imaged on the Celigo Imaging Cytometer (Ne xcelom Bioscience) to quantify area of each spheroid. Cell viability was subsequently measured using the CellTiter-Glo assay with some modifications: 50 μL of a solution of CellTiter-Glo reagent containing a final concentration of 0.025 % Trypsin (Thermo Sci entific) was added to each well and plates were shaken at 500 rpm for 30 min before reading.

[2] = Microsomal metabolic stability, human; format: in vitro ADME; conditions: for half-life at 1 µM: pH 7.4, human liver microsomes
[3] = tested on: human hepatocytes; assay: Human hepatocyte cytotoxicity (CellTiter-Glo, 72 hr); conditions: Homo sapiens, Hepatocyte, read-out: Human Hepatocytes EC50
[4] = as above; conditions: both, human, cryopreserved human hepatocytes
[5] = tested on: JJ012 (R132G) 3D cellular spheroids; assay: 2-HG production, spheroids (3D), JJ012; format: cell-based; conditions: Homo sapiens; 3D spheroid, mass spec
Text: as §1, §2, §3, §4, §5

[6] = Microsomal metabolic stability, mouse; format: in vitro ADME; conditions: pH 7.4; mouse liver microsomes
[7] = tested on: RBE (R132S) cells; assay: 2-HG production, monolayer (2D), mass spectrometry, RBE; format: cell-based; conditions: Homo sapiens, mass spec; for Emax: read-out: 2D Cellular 2HG Production (Mass Spec) RBE (R132S) % EMax; for EC50: read-out: 2D Cellular 2HG Production (Mass Spec) RBE (R132S) EC50
Experimental: (Supplementary Table 2). Inhibition of the target was assessed by quantitative measurement of 2-HG levels in extracellular media of monolayer (or 2-dimentional, 2D) cultures following incubation (48 hrs) with inhibitors. […]
treated 96-well plates (Corning) at a density of 8000 cells/well/100 μL . Plates were sealed with gas permeable membranes (Research Products International Corp.) and incubated at 37°C, 5% CO2, 90% RH for 24 hr. Growth media was subsequently aspirated and replaced with 100 μL of a solution of growth media cont aining either vehicle DMSO or indicated mIDH1 inhibitor. Each compound was tested as an 8-point dilution series ranging from 5 μM to 2.3 nM. After 48 hr treatment, 75 μL of the exhausted media was collected and snap frozen on dry ice. Samples were analyzed by LC-MS for 2- HG concentrations using Rapidfire / Mass Spectrometry (Quintara) (4) . Remaining cells were assessed for viability by adding 100 μL of fresh media and 50 μL of CellTiter-Glo reagent (Promega) as per manufacturer instructions. Luminescence was read using a Vi ewLux High-throu ghpu t CCD imager (PerkinElmer) equipped with clear filters.

[8] = High-throughput PAMPA (GIT), pH 7.4; format: in vitro ADME; conditions: read-out: HT PAMPA Permeability
Text: In Vitro Physicochemical and Drug Metabolism Studies:
High-Throughput PAMPA assay
The stirring double- sin k PAMPA method patented by pION Inc. (Billeri ca, MA) was employed to determine the permeability of compounds via PAMPA passive diffusion. The PAMPA lipid membrane consisted of an artificial membrane of a proprietary lipid mixture and dodecane (Pion Inc.), optimized to predict gastrointestinal tract (GIT) passive diffusion permeability, was immobilized on a plastic matrix of a 96 well “donor” filter plate placed above a 96 well “a cceptor” plate. A pH 7.4 solution was used in both donor and acceptor wells. The test articles, stocked in 10 mM DMSO solutions, were diluted to 0.05 mM in aqueous buffer (pH 7.4) , and the concentration of DMSO was 0.5% in the final solution. During the 30-min permeation period at room temperature, the test samples in the donor compartment were stirred using the Gutbox te chnology (Pion Inc.) to reduce the unstirred water layer. The test article concentrations in the donor and acceptor compartments were measured using an UV plate reader (Nano Quant, Infinite 200 […]
PRO, Tecan Inc., Männedorf, Switzerland). Permeability calculations were performed using Pion Inc. software and were expressed in units of 10-6 cm/s. […]

[9] = High-throughput kinetic solubility (µSOL), pH 7.4; format: physicochemical; conditions: aqueous solution pH 7.4, pH 7.4, aqueous buffer, kinetic from dmso stock; read-out: HT Kinetic Solubility, Solubility
Experimental: High-Throughput kinetic solubility test assay
Pion’s patented µSOL assay for kinetic solubility determination was used. In this assay, the classical saturation shake- flask solub ility method was adapted to a 96-well microtiter plate format and a co-solvent method with n- propanol as the […] was utilized. Test compounds were prepared in 10 mM DMSO solutions (45 µ L), and diluted with the co-solve nt to a final drug conce ntration of […]
Samples are incubated at room temperature for 6 hrs t o achieve equilibrium. The samples were then filtered to remove any precipitate formed. The concentrat ion of the compound in the filtrate was measured by UV ab sorbance. […]
used for quantitation of unknown drug concent ration in filtrate. Spectroscopically pure 1- Propanol was used as acosolvent to suppress precipitation in the reference

[10] = Human plasma protein binding (rapid equilibrium dialysis, Cyprotex); format: in vitro ADME; conditions: for fraction unbound at 4 h, 5 µM: human, plasma, human plasma
[11] = in vitro; conditions: human, Caco-2
[12] = read-out: Human Plasma Protein Binding % Bound (converted)
[13] = read-out: Human Plasma Protein Binding % Unbound

Structure (SMILES) | EC50 [1] | Emax [1] | half-life at 1 µM [2] | EC50 [3] | Emax at 72 h [4] | EC50 [5] | Emax [5] | half-life at 1 µM [6] | Emax [7] | EC50 [7] | Papp at 30 min, 0.05 mM [8] | solubility kinetic at 6 h [9] | fraction unbound at 4 h, 5 µM [10, 12] | fraction unbound at 4 h, 5 µM [10, 13] | Papp A→B at 2 h, 10 µM [11] | Papp B→A at 2 h, 10 µM [11] | metabolic stability in hepatic microsomes ([2]; three species (mouse, rat and human), result in words) | unbound fraction in human plasma ([10]; 5 µM)
Cc1ccccc1C(C(=O)NC1CCCCC1)N(C(=O)Cn1cnc2ccccc21)c1cccc(F)c1 (centres unmarked) [Agios 135] | 451 nM | 97.4% | 1.5 min | 14.5 µM | 91.5% | 236 nM | 95.6% | 2.9 min | 106% | 810 nM | 787 ×10⁻⁶ cm/s | 5.8 µM (≈ 2.89 µg/mL) | 0.002 | 0.00167 | 0.3 ×10⁻⁶ cm/s | 3.8 ×10⁻⁶ cm/s |  | 
CC(=O)N1CCN(Cc2ccc([C@H](C)Nc3nccc(N4C(=O)OC[C@@H]4C(C)C)n3)cc2)CC1 [Norvartis 556] | 546 nM | 102% | 7.9 min | > 30 µM | 54.8% | 678 nM | 104% | 10.3 min | 103% | 912 nM | 390 ×10⁻⁶ cm/s | 148 µM (≈ 69.1 µg/mL) | 0.144 | 0.144 | 17.9 ×10⁻⁶ cm/s | 46.9 ×10⁻⁶ cm/s |  | 
COc1c(C)cc(NC(=O)c2nn(Cc3ccc(F)cc3)c3c2CN(C(=O)c2ccc[nH]2)C[C@]3(C)C(N)=O)cc1C [GSK864] | 482 nM | 95.6% | 23.6 min | 24.9 µM | 114% | 360 nM | 102% | 12.7 min | 102% | 532 nM | 365 ×10⁻⁶ cm/s | 0.175 µM (≈ 0.0978 µg/mL) | 0.002 | 0.00206 | 1.63 ×10⁻⁶ cm/s | 8.12 ×10⁻⁶ cm/s |  | 
N#Cc1ccnc(N2C(=O)CC[C@H]2C(=O)N(c2cncc(F)c2)[C@H](C(=O)NC2CC(F)(F)C2)c2ccccc2Cl)c1 [AG-120, Ivosidenib] | 254 nM | 62.9% | > 120 min | > 30 µM | 66.8% | 24 nM | 79.8% | > 120 min | 89.1% | 220 nM | 537 ×10⁻⁶ cm/s | 105 µM (≈ 61.3 µg/mL) | 0.088 | 0.0876 | 0.85 ×10⁻⁶ cm/s | 47.4 ×10⁻⁶ cm/s | highest metabolic stability | ~ 10 % unbound
Cc1ccccc1C(C(=O)NC1CCCCC1)N(C(=O)Cn1ccnc1C)c1cccc(F)c1 (centres unmarked) [AGI-5198] | 1050 nM | 118% | 4.2 min | 11.6 µM | 82.8% | 428 nM | 113% | 3.5 min | 69.1% | 2000 nM | > 1400 ×10⁻⁶ cm/s | 26.2 µM (≈ 12.1 µg/mL) | 0.033 | 0.0326 | 0.99 ×10⁻⁶ cm/s | 22.8 ×10⁻⁶ cm/s |  | 
Cc1ccccc1[C@@H](C(=O)NC1CCCC1)N(C(=O)Cn1cnc2ccccc21)c1cccc(F)c1 [ML309] | 321 nM | 91.3% | 1.5 min | 20.3 µM | 104% | 218 nM | 92% | 2.7 min | 101% | 970 nM | > 1700 ×10⁻⁶ cm/s | 26.2 µM (≈ 12.7 µg/mL) | 0.004 | 0.00355 | 4.9 ×10⁻⁶ cm/s | 14.1 ×10⁻⁶ cm/s |  | 
